Experimental data as given in patent publication EP3049422B1, “INTUMESCENT COATINGS” (MIPA SE, priority 2013, dated 2015).

Assay: Water solubility of the salts
Assay type: physicochemical
Details: not given
Source text: Organische Lösungsmittel tragen zur Umweltverschmutzung bei und deshalb ist es wünschenswert, Wasser als Basis für Reaktionen oder auch Lacke zu verwenden. […] Wir beobachteten, dass vor allem die Kombination mit Alkalimetallen zu einer sehr guten Löslichkeit führte.
Ein wichtiges Kriterium für die Auswahl der Substanzen für eingehendere Studien, war deren Wasserlöslichkeit. Ausgeschlossen wurden vor allem Verbindungen, die höhere Kationen als die Alkalimetalle enthalten, da diese nur sehr schlecht löslich sind. Trotzdem wurde zumindest für zwei wasserunlösliche Salze versucht, sie als Suspensionen aufzubringen. Ausgewählt wurden dafür ALDA und Calcium(II)hydantoinat.

Compound	Wasser löslich	Wasserlöslichkeit
O=C1CN(CN2CC(=O)NC2=O)C(=O)N1 [1,1'-(Methylen) bishydantoin Kalium, Kalium(I)N,N'-methylenbishydantoinat]	+	
O=C1CN(CN2CC(=O)NC2=O)C(=O)N1 [1,1'-(Methylen) bishydantoin Natrium, Natrium(I)N,N'-methylenbishydantoinat]	+	
CC(N1CC(=O)NC1=O)N1CC(=O)NC1=O [1,1'-(Methylmethylen) bishydantoin Calcium] [Calcium(II)N,N'-(methylmethylen)bishydantoinat]	+	
CC(N1CC(=O)NC1=O)N1CC(=O)NC1=O [1,1'-(Methylmethylen) bishydantoin Kalium] [Kalium(I)N,N'-(methylmethylen)bishydantoinat]	+	
CC(N1CC(=O)NC1=O)N1CC(=O)NC1=O [1,1'-(Methylmethylen) bishydantoin Natrium] [Natrium(I)N,N'-(methylmethylen)bishydantoinat]	+	
NC(=O)NC1NC(=O)NC1=O (stereo not shown) [Allantoin Calcium, Calcium(II)allantoinat]	+	
NC(=O)NC1NC(=O)NC1=O (stereo not shown) [Allantoin Kalium, Kalium(I)allantoinat]	+	
NC(=O)NC1NC(=O)NC1=O (stereo not shown) [Allantoin Natrium, Natrium(I)allantoinat]	+	
NC(=O)NC1NC(=O)NC1=O (stereo not shown) [Allantoin, reference compound]		schlecht wasserlöslich
O=C1CN(CN2CC(=O)[N-]C2=O)C(=O)[N-]1.OC[P+](CO)(CO)CO.OC[P+](CO)(CO)CO [Bis[tetrakis(hydroxymethyl)phosphonium]N,N'-methylenbishydantoinat]	+	
O=C1CNC(=O)N1 [Hydantoin Calcium, Calcium(II)hydantoinat]	-	
O=C1CNC(=O)N1 [Hydantoin Kalium, Kalium(I)hydantoinat]	+	
O=C1CNC(=O)N1 [Hydantoin Natrium, Natrium(I)hydantoinat]	+	
O=C1CNC(=O)N1 [Hydantoin Tetramethylammonium, Tetramethylammoniumhydantoinat]	+	
Dihydroxyaluminiumallantoinat [Allantoin Al(OH)2*, reference compound]	-	
Tetrakis(hydroxymethyl)phosphoniumhydantoinat	+	

Same assay, conditions: in words

Compound	Wasserlöslichkeit
O=C1CNC(=O)N1 [Hydantoin Calcium, Calcium(II)hydantoinat]	wasserunlösliche
O=C1CNC(=O)N1 [Hydantoin, reference compound]	schlecht wasserlöslich
Dihydroxyaluminiumallantoinat [Allantoin Al(OH)2*, reference compound]	wasserunlösliche
